Data from ChEMBL document CHEMBL2384925, “Structure-activity relationships for 4-anilinoquinoline derivatives as inhibitors of the DNA methyltransferase enzyme DNMT1” (2013).

Columns and labels:
[1] = biological target: DNA (cytosine-5)-methyltransferase 1 (Homo sapiens) (UniProt P26358); assay: Inhibition of DNMT1 in human HCT116 cells at 5 uM after 24 hrs by Western blot analysis relative to control; assay type: cell-based; conditions: HCT-116
[2] = test system: HCT-116; assay: Cytotoxicity against human HCT116 cells assessed as viability; assay type: functional; conditions: read-out: TD50 (the source's name)

DNA (cytosine-5)-methyltransferase 1 (Homo sapiens), sequence (P26358 whole entry): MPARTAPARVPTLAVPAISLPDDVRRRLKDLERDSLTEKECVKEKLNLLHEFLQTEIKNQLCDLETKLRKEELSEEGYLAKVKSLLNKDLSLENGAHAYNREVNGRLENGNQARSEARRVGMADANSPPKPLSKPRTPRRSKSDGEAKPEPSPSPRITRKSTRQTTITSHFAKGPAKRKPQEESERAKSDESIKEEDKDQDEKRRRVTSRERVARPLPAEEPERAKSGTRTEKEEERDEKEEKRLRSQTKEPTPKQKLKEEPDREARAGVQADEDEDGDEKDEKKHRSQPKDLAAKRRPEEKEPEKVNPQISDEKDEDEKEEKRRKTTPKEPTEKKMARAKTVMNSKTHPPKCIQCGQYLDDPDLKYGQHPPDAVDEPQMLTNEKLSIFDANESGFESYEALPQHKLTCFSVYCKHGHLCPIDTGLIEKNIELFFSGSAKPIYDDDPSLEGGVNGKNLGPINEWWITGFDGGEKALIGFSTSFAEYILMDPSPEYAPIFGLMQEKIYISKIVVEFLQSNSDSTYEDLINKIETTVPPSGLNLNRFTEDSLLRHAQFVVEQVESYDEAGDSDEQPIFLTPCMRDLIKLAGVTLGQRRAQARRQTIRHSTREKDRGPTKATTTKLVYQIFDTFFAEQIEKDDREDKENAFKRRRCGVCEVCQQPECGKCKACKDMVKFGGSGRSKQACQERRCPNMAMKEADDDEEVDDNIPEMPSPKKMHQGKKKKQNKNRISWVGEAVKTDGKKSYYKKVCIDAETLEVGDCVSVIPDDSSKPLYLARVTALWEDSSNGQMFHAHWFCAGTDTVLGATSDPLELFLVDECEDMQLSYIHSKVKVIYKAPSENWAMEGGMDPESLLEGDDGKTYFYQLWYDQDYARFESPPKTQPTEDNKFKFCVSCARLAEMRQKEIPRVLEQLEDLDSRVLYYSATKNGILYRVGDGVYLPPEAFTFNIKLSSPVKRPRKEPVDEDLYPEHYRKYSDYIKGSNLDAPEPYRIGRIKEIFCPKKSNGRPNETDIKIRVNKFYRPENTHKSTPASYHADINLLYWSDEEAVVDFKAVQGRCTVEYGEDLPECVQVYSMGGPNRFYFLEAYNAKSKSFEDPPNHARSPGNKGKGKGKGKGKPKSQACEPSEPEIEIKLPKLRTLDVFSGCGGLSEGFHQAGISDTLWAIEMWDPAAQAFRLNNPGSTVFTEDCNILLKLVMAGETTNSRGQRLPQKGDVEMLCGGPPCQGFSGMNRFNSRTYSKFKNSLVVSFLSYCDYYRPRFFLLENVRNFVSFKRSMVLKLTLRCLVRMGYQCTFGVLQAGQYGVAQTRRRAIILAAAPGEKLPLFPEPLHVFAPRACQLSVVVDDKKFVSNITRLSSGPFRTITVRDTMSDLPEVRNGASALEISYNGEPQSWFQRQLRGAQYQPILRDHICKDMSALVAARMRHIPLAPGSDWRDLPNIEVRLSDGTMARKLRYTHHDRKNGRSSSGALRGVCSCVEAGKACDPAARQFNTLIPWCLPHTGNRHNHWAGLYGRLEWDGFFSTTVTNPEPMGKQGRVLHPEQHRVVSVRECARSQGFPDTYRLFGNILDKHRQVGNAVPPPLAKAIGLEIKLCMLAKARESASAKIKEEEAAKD

SMILES	inhibition [1] [%]	CC50 [2] [µM]
C[n+]1ccc(Nc2cccc(C(=O)Nc3ccc(Nc4ccnc5ccccc45)cc3)c2)cc1	80	25
C[n+]1ccc(Nc2ccc(NC(=O)c3ccc(Nc4ccnc5ccccc45)cc3)cc2)cc1	0	25
C/C(=N\N=C(N)N)c1cccc(NC(=O)c2ccc(Nc3ccnc4ccc(N(C)C)cc34)cc2)c1	0	25
C/C(=N\N=C(N)N)c1cccc(C(=O)Nc2ccc(Nc3ccnc4ccc(N(C)C)cc34)cc2)c1	40	25
C[n+]1ccc(Nc2cccc(C(=O)Nc3ccc(Nc4ccnc5ccc(N)cc45)cc3)c2)cc1	80	25
C[n+]1ccc(Nc2cccc(NC(=O)c3ccc(Nc4ccnc5ccc(N)cc45)cc3)c2)cc1	2	12.5
C[n+]1ccc(Nc2cccc(NC(=O)c3ccc(Nc4ccnc5ccccc45)cc3)c2)cc1	0	12.5
C[n+]1ccc(Nc2ccc(C(=O)Nc3ccc(Nc4ccnc5ccc(N)cc45)cc3)cc2)cc1	0	50
Cc1cc(Nc2ccc(NC(=O)c3ccc(Nc4ccnc5ccccc45)cc3)cc2)nc(N)n1	97	25
C[n+]1ccc(Nc2ccc(NC(=O)c3ccc(Nc4ccnc5ccc(N)cc45)cc3)cc2)cc1	0	50
CN(C)c1ccc2nccc(Nc3ccc(NC(=O)c4cccc(Nc5cc[n+](C)cc5)c4)cc3)c2c1	75	25
C/C(=N\N=C(N)N)c1ccc(NC(=O)c2ccc(Nc3ccnc4ccc(N(C)C)cc34)cc2)cc1	30	25
C[n+]1ccc(Nc2ccc(C(=O)Nc3ccc(Nc4ccnc5ccccc45)cc3)cc2)cc1	0	12.5
C/C(=N\N=C(N)N)c1ccc(C(=O)Nc2ccc(Nc3ccnc4ccc(N(C)C)cc34)cc2)cc1	34	25
Cc1cc(Nc2ccc(NC(=O)c3ccc(Nc4ccnc5ccc(Cl)cc45)cc3)cc2)nc(N)n1	30	25
CN(C)c1ccc2nccc(Nc3ccc(NC(=O)c4ccc(Nc5cc[n+](C)cc5)cc4)cc3)c2c1	45	50
Cc1cc(Nc2cccc(C(=O)Nc3ccc(Nc4ccnc5ccccc45)cc3)c2)nc(N)n1	85	25
CN(C)c1ccc2nccc(Nc3ccc(C(=O)Nc4cccc(Nc5cc[n+](C)cc5)c4)cc3)c2c1	0	25
CN(C)c1ccc2nccc(Nc3ccc(C(=O)Nc4ccc(Nc5cc[n+](C)cc5)cc4)cc3)c2c1	16	50
Cc1cc(Nc2ccc(NC(=O)c3ccc(Nc4ccnc5ccc(N(C)C)cc45)cc3)cc2)nc(N)n1	43	25
Cc1cc(Nc2ccc(NC(=O)c3ccc(Nc4ccnc5c(F)c(F)c(F)cc45)cc3)cc2)nc(N)n1	18	25
Cc1cc(Nc2ccc(C(=O)Nc3ccc(Nc4ccnc5ccccc45)cc3)cc2)nc(N)n1	75	25
